Measured values published in patent US20250223303A1, “TRICYCLIC BORONIC ACID DERIVATIVE, AND PREPARATION METHOD THEREFOR AND APPLICATION THEREOF” (priority 2021, published 2025).

Experiments:
[1] = tested on: Klebsiella pneumoniae ARLG 1196; assay: MIC test of compounds in combination with antibiotics, Klebsiella pneumoniae ARLG 1196; conditions: for MIC: Klebsiella pneumoniae, ARLG1196
Protocol: (§1) Strain preparation: the strains to be tested were streaked from glycerol tube at −80° C. onto Mueller Hinton II Agar plates. The plates were then placed in a 37° C. incubator and cultured for 18-24 hours.
(§2) Media preparation: CAMHB (Mueller Hinton II Broth): 22 g of powder was dissolved in 1 L of purified water and sterilized at 121° C. for 10 min for use. Saline: 8.5 g NaCl was dissolved in 1 L of pure water and sterilized at 121° C. for 30 min for use.
(§3) Preparation of compound and antibiotic stock solutions: the compound and antibiotic were dissolved in DMSO or water to 12.8 mg/mL.
(§4) 2-Fold gradient dilution of antibiotics: 300 μL of CAMHVIB medium was added to columns 2-12 of a 96-deep well plate. In column 1, 24 μL of antibiotic stock solution and 576 µL of CAMHB medium were added and mixed well, with a concentration of 512 μg/mL. 300 µL of antibiotic solution was transferred from the column 1 to the second column and mixed well. The process was repeated until column 11, and the column 12 was a blank control.
(§5) Dilution of combined compounds: the compound was diluted 400-fold to 32 μg/ml with CAMHB medium.
(§6) Working solution aliquoting: 25 μL of antibiotics was aliquoted into the 96-U bottom plate with a pipette, and 25 μL of combined compound was added to each well. If antibiotics were used alone, 25 μL of CAMHB medium was added.
(§7) Inoculum solution preparation: 5-6 single colonies were selected from the plate and suspended in normal saline. The bacterial suspension was adjusted to 0.2 (i.e., 0.5 McFarland turbidity, with a bacterial concentration was about 1 to 2×10^8 CFU/mL) with a turbidity meter. The bacterial suspension was diluted 100-fold with CAMHB medium for later use.
(§8) Inoculation: 50 μL of inoculum solution was transferred to the above 50 μL compound plate with a pipette.
(§9) Culture: The 96-U bottom plate was placed in an incubator at 37° C. for 18 to 20 h.
(§10) After the incubation, bacterial growth was visually observed, and the test plate was photographed and recorded.

[2] = tested on: Escherichia coli ARLG 2829; assay: MIC test of compounds in combination with antibiotics, Escherichia coli ARLG 2829; conditions: for MIC: Escherichia coli, ARLG2829
Protocol: as §1, §2, §3, §4, §5, §6, §7, §8, §9, §10

[3] = tested on: Klebsiella pneumoniae ATCC BAA-1705; assay: MIC test of compounds in combination with antibiotics, Klebsiella pneumoniae ATCC BAA-1705; conditions: for MIC: Klebsiella pneumoniae, ATCCBAA1705
[4] = tested on: Acinetobacter baumannii ARLG-1791 OXA-23; assay: MIC test of compounds in combination with antibiotics, Acinetobacter baumannii ARLG-1791; conditions: Acinetobacter baumannii, ARLG1791OXA23
Protocol: as §4, §5, §6, §7, §8, §9

[5] = tested on: Acinetobacter baumannii ARLG-1852 OXA-23; assay: MIC test of compounds in combination with antibiotics, Acinetobacter baumannii ARLG-1852; conditions: Acinetobacter baumannii, ARLG1852OXA23
Protocol: as §4, §5, §6, §7, §8, §9

[6] = tested on: Acinetobacter baumannii WX-AB013; assay: MIC test of compounds in combination with antibiotics, Acinetobacter baumannii WX-AB013; conditions: Acinetobacter baumannii, WXAB013
Protocol: as §4, §5, §6, §7, §8, §9

[7] = tested on: Acinetobacter baumannii ARLG-1809 OXA-23; assay: MIC test of compounds in combination with antibiotics, Acinetobacter baumannii ARLG-1809; conditions: Acinetobacter baumannii, ARLG1809OXA23
Protocol: as §4, §5, §6, §7, §8, §9

[8] = tested on: Klebsiella pneumoniae ATCC BAA-2470; assay: MIC test of compounds in combination with antibiotics, Klebsiella pneumoniae ATCC BAA-2470; conditions: for MIC: Klebsiella pneumoniae, ATCCBAA2470
Protocol: as §1, §2, §3, §4, §5, §6, §7, §8, §9, §10

[9] = tested on: Acinetobacter baumannii ARLG-1853 OXA-23; assay: MIC test of compounds in combination with antibiotics, Acinetobacter baumannii ARLG-1853; conditions: Acinetobacter baumannii, ARLG1853OXA23
Protocol: as §4, §5, §6, §7, §8, §9

[10] = tested on: Acinetobacter baumannii WX-AB005; assay: MIC test of compounds in combination with antibiotics, Acinetobacter baumannii WX-AB005; conditions: Acinetobacter baumannii, WXAB005
Protocol: as §4, §5, §6, §7, §8, §9

[11] = tested on: Acinetobacter baumannii WX-AB013; assay: MIC test of compounds in combination with antibiotics, Acinetobacter baumannii WX-AB013
Protocol: as §4, §5, §6, §7, §8, §9

[12] = tested on: Acinetobacter baumannii ARLG-1853 OXA-23; assay: MIC test of compounds in combination with antibiotics, Acinetobacter baumannii ARLG-1853
Protocol: as §4, §5, §6, §7, §8, §9

[13] = tested on: Acinetobacter baumannii WX-AB005; assay: MIC test of compounds in combination with antibiotics, Acinetobacter baumannii WX-AB005
[14] = tested on: Acinetobacter baumannii ARLG-1809 OXA-23; assay: MIC test of compounds in combination with antibiotics, Acinetobacter baumannii ARLG-1809
[15] = tested on: Acinetobacter baumannii ARLG-1791 OXA-23; assay: MIC test of compounds in combination with antibiotics, Acinetobacter baumannii ARLG-1791
[16] = tested on: Acinetobacter baumannii ARLG-1852 OXA-23; assay: MIC test of compounds in combination with antibiotics, Acinetobacter baumannii ARLG-1852

| SMILES | MIC [1] | MIC [2] | MIC [3] | MIC [4] | MIC [5] | MIC [6] | MIC [7] | MIC [8] | MIC [9] | MIC [10] | further results |
| --- | --- | --- | --- | --- | --- | --- | --- | --- | --- | --- | --- |
| C[C@@H](O)[C@H]1C(=O)N2C(C(=O)[O-])=C(SC3Cn4cnc[n+]4C3)[C@H](C)[C@H]12 (some centres unmarked) [Biapenem, biapenem] | 8 µg/mL | 16 µg/mL | 32 µg/mL | 16 µg/mL | 32 µg/mL | 64 µg/mL | 32 µg/mL | 4 µg/mL | 32 µg/mL | 32 µg/mL | – |
| CO/N=C(\C(=O)N[C@@H]1C(=O)N2C(C(=O)[O-])=C(C[N+]3(C)CCCC3)CS[C@H]12)c1csc(N)n1 [Cefepime] | > 64 µg/mL | > 64 µg/mL | > 128 µg/mL | 128 µg/mL | 128 µg/mL | 32 µg/mL | 128 µg/mL | > 128 µg/mL | 128 µg/mL | 64 µg/mL | – |
| C[C@H](Sc1ccc2c(c1C(=O)O)OB(O)[C@@H]1C[C@H]21)C1CN(C)C1 [Compound 20-a] | – | – | – | – | – | – | – | – | – | – | MIC of biapenem in combination with compound, Klebsiella pneumoniae ARLG-1196 CTM-1 group, SHV, NDM, TEM ([1]; Biapenem + compound (8 μg/mL)): ≤0.125 µg/mL; MIC of meropenem in combination with compound, Klebsiella pneumoniae ARLG-1196 CTM-1 group, SHV, NDM, TEM ([1]; Meropenem + compound (8 μg/mL)): 2 µg/mL; MIC of biapenem in combination with compound, Escherichia coli ARLG-2829 NDM-5, OXA-1 ([2]; Biapenem + compound (8 μg/mL)): 0.25 µg/mL; MIC of meropenem in combination with compound, Escherichia coli ARLG-2829 NDM-5, OXA-1 ([2]; Meropenem + compound (8 μg/mL)): 16 µg/mL; MIC of biapenem in combination with compound, Acinetobacter baumannii WX-AB013 ([11]; Biapenem + compound (8 μg/mL)): 0.5 µg/mL; MIC of meropenem in combination with compound, Acinetobacter baumannii WX-AB013 ([11]; Meropenem + compound (8 μg/mL)): 2 µg/mL; MIC of biapenem in combination with compound, Klebsiella pneumoniae ATCC BAA-1705 KPC-2 ([3]; Biapenem + compound (8 μg/mL)): 0.5 µg/mL; MIC of meropenem in combination with compound, Klebsiella pneumoniae ATCC BAA-1705 KPC-2 ([3]; Meropenem + compound (8 μg/mL)): ≤0.125 µg/mL; MIC of biapenem in combination with compound, Acinetobacter baumannii ARLG-1853 OXA-23 ([12]; Biapenem + compound (8 μg/mL)): 0.25 µg/mL; MIC of meropenem in combination with compound, Acinetobacter baumannii ARLG-1853 OXA-23 ([12]; Meropenem + compound (8 μg/mL)): 2 µg/mL; MIC of biapenem in combination with compound, Acinetobacter baumannii WX-AB005 ([13]; Biapenem + compound (8 μg/mL)): 2 µg/mL; MIC of meropenem in combination with compound, Acinetobacter baumannii WX-AB005 ([13]; Meropenem + compound (8 μg/mL)): 4 µg/mL; MIC of biapenem in combination with compound, Acinetobacter baumannii ARLG-1809 OXA-23 ([14]; Biapenem + compound (8 μg/mL)): 0.5 µg/mL; MIC of meropenem in combination with compound, Acinetobacter baumannii ARLG-1809 OXA-23 ([14]; Meropenem + compound (8 μg/mL)): 2 µg/mL; MIC of biapenem in combination with compound, Klebsiella pneumoniae ATCC BAA-2470 NDM-1 ([8]; Biapenem + compound (8 μg/mL)): ≤0.125 µg/mL; MIC of meropenem in combination with compound, Klebsiella pneumoniae ATCC BAA-2470 NDM-1 ([8]; Meropenem + compound (8 μg/mL)): 4 µg/mL; MIC of biapenem in combination with compound, Acinetobacter baumannii ARLG-1791 OXA-23 ([15]; Biapenem + compound (8 μg/mL)): 0.25 µg/mL; MIC of meropenem in combination with compound, Acinetobacter baumannii ARLG-1791 OXA-23 ([15]; Meropenem + compound (8 μg/mL)): 2 µg/mL; MIC of biapenem in combination with compound, Acinetobacter baumannii ARLG-1852 OXA-23 ([16]; Biapenem + compound (8 μg/mL)): 0.25 µg/mL; MIC of meropenem in combination with compound, Acinetobacter baumannii ARLG-1852 OXA-23 ([16]; Meropenem + compound (8 μg/mL)): 2 µg/mL |
| C[C@@H](O)[C@H]1C(=O)N2C(C(=O)O)=C(S[C@@H]3CN[C@H](C(=O)N(C)C)C3)[C@H](C)[C@H]12 [Meropenem] | 128 µg/mL | > 128 µg/mL | 128 µg/mL | > 128 µg/mL | 128 µg/mL | 64 µg/mL | 32 µg/mL | 128 µg/mL | 128 µg/mL | > 128 µg/mL | – |
